The GI50 is the concentration at which growth is held to half of that of the control. Low readings indicate greater sensitivity of the cells, high ones lower sensitivity of the cells.

This is an account of results in patent US20260062422A1 (Halda Therapeutics OpCo, Inc., priority 2022, published 2026).

One assay has as its system T47D cells. Description: Cellular growth inhibition assay for T47D cells, CellTiter-Glo. The assay is classed as cell-based, human. Particulars: Homo sapiens, T47D, 72 h, 72 hours treatment, CellTiter-Glo 2.0 cell viability. An outline of the steps: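 Growth inhibition as GI50, fitted with four parameters to CellTiter-Glo luminescence after 72 h of compound exposure (0.5% DMSO). Cells were T47D, grown in insulin-supplemented (0.2 units/mL) DMEM with 10% FBS and treated one day post-seeding.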
(ATP-based viability assays read luminescence as a measure of living cells.)

For assay [1], the system named is T-Rex 293 cell line SC3 cells having increased expression of androgen receptor protein due to exposure to doxycycline. Description: Cellular growth inhibition, T-Rex 293 SC3 cells with doxycycline (androgen receptor induced), CellTiter-Glo. It is filed as cell-based. Particulars: 72 h, T-Rex 293 SC3 cells with 10 ng/mL doxycycline (increased androgen receptor expression). In a few lines:
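GI50 came from a four-parameter fit of CellTiter-Glo 2.0 luminescence after 72 h compound exposure (0.5% DMSO, 37 °C), dosing 24 h post-seeding. SC3 clone cells (2500/well), transfected with wild-type androgen receptor, grew in charcoal-stripped serum medium lacking phenol red, induced with 10 ng/mL doxycycline or left uninduced.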

Some results are limits rather than exact numbers.

`Cc1sc2c(c1C)C(c1ccc(CCCOC3CCN(c4ncc(C(=O)N[C@H]5C(C)(C)[C@H](Oc6ccc(C#N)c(Cl)c6)C5(C)C)cn4)CC3)cc1)=N[C@@H](C)c1nnc(C)n1-2` [Compound I-228, N-[3-(3-chloro-4-cyano-phenoxy)-2,2,4,4-tetramethyl-cyclobutyl]-2-[4-[3-[4-[(9S)-4,5,9,13-tetramethyl-3-thia-1,8,11,12-tetrazatricyclo [8.3.0.02,6]trideca-2(6),4,7,10,12-pentaen-7-yl]phenyl]propoxy]-1-piperidyl]pyrimidine-5-carboxamide]: the 50% growth inhibitory concentration (GI50) (in the assay with T47D cells; in assay [1]) was below 500 nM throughout.
As for `Cc1sc2c(c1C)C(c1ccc(OCCOC3CCN(c4ncc(C(=O)N[C@H]5C(C)(C)[C@H](Oc6ccc(C#N)c(Cl)c6)C5(C)C)cn4)CC3)cc1)=N[C@@H](CC(=O)OC(C)(C)C)c1nnc(C)n1-2` [Compound I-235, tert-butyl 2-((S)-4-(4-(2-((1-(5-(((1r,3r)-3-(3-chloro-4-cyanophenoxy)-2,2,4,4-tetramethylcyclobutyl)carbamoyl)pyrimidin-2-yl)piperidin-4-yl)oxy)ethoxy)phenyl)-2,3,9-trimethyl-6H-thieno[3,2-f][1,2,4]triazolo[4,3-a][1,4]diazepin-6-yl)acetate], the GI50 (in the assay with T47D cells; in assay [1]) was below 500 nM in each case.
`Cc1sc2c(c1C)C(c1ccc(C3CC3C3CC4(CCN(c5ncc(C(=O)N[C@H]6C(C)(C)[C@H](Oc7ccc(C#N)c(Cl)c7)C6(C)C)cn5)CC4)C3)cc1)=N[C@@H](Cc1ncco1)c1nnc(C)n1-2` (stereo partly drawn) [Compound I-237]: the GI50 (with T47D cells; in assay [1]) was below 500 nM in each case.
As for `Cc1sc2c(c1C)C(c1ccc(CCC3CC4(CCCN(c5ncc(C(=O)N[C@H]6C(C)(C)[C@H](Oc7ccc(C#N)c(Cl)c7)C6(C)C)cn5)C4)C3)cc1)=N[C@@H](Cc1ncco1)c1nnc(C)n1-2` [Compound I-241], the GI50 (in the assay with T47D cells; in assay [1]) was below 500 nM each time.
`Cc1sc2c(c1C)C(c1ccc(C#CC3CC4(CCN(c5ncc(C(=O)N[C@H]6C(C)(C)[C@H](Oc7ccc(C#N)c(Cl)c7)C6(C)C)cn5)CC4)C3)cc1)=N[C@@H](Cc1ncco1)c1nnc(C)n1-2` [Compound I-267]: the 50% growth inhibitory concentration (GI50) (in the assay on T47D cells; in assay [1]) was below 500 nM in each case.
Turning to `Cc1sc2c(c1C)C(c1ccc(N3CC(CC4CCN(c5ncc(C(=O)N[C@H]6C(C)(C)[C@H](Oc7ccc(C#N)c(Cl)c7)C6(C)C)cn5)CC4)C3)cc1)=N[C@@H](C)c1nnc(C)n1-2` [Compound I-270], the GI50 (with T47D cells; in assay [1]) was below 500 nM in each case.
As to `Cc1sc2c(c1C)C(c1ccc(N3CC(C4CCN(c5ncc(C(=O)N[C@H]6C(C)(C)[C@H](Oc7ccc(C#N)c(Cl)c7)C6(C)C)cn5)CC4)C3)cc1)=N[C@@H](C)c1nnc(C)n1-2` [Compound I-271], the GI50 is 500 to 1500 nM with T47D cells and below 500 nM in assay [1].
With `Cc1sc2c(c1C)C(c1ccc(OC3CC4(C3)CC3(CCN(c5ncc(C(=O)N[C@H]6C(C)(C)[C@H](Oc7ccc(C#N)c(Cl)c7)C6(C)C)cn5)CC3)C4)cc1)=N[C@@H](Cc1ncco1)c1nnc(C)n1-2` [Compound I-283], the GI50 (in the assay with T47D cells; in assay [1]) was below 500 nM in each case.
For `Cc1sc2c(c1C)C(c1ccc(CC3CC4(CCN(c5ncc(C(=O)N[C@H]6C(C)(C)[C@H](Oc7ccc(C#N)c(Cl)c7)C6(C)C)cn5)CC4)C3)cc1)=N[C@@H](C)c1nnc(C)n1-2` [Compound I-436], the GI50 (in the assay with T47D cells; in assay [1]) was below 500 nM each time.
